Measured values taken from ChEMBL document CHEMBL1158404, “Antifungal activity of alkyl and heterocyclic aza-derivatives of gossypol as well as their complexes with NaClO4 against Fusarium oxysporum f. sp. lupini” (2009).

Key:
Type in all cases: functional
Fusarium oxysporum [1] = assay: Antifungal activity against Fusarium oxysporum f. sp. lupini at 1 ug/ml after 96 hrs
Fusarium oxysporum [2] = assay: Antifungal activity against Fusarium oxysporum f. sp. lupini at 1 ug/ml after 192 hrs relative to control; conditions: read-out: GI
Fusarium oxysporum [3] = assay: Antifungal activity against Fusarium oxysporum f. sp. lupini at 1 ug/ml after 144 hrs
Fusarium oxysporum [4] = assay: Antifungal activity against Fusarium oxysporum f. sp. lupini at 20 ug/ml after 48 hrs
Fusarium oxysporum [5] = assay: Antifungal activity against Fusarium oxysporum f. sp. lupini at 20 ug/ml after 192 hrs
Fusarium oxysporum [6] = assay: Antifungal activity against Fusarium oxysporum f. sp. lupini at 1 ug/ml after 48 hrs
Fusarium oxysporum [7] = assay: Antifungal activity against Fusarium oxysporum f. sp. lupini at 20 ug/ml after 192 hrs relative to control; conditions: read-out: GI
Fusarium oxysporum [8] = assay: Antifungal activity against Fusarium oxysporum f. sp. lupini at 20 ug/ml after 144 hrs
Fusarium oxysporum [9] = assay: Antifungal activity against Fusarium oxysporum f. sp. lupini at 20 ug/ml after 96 hrs
Fusarium oxysporum [10] = assay: Antifungal activity against Fusarium oxysporum f. sp. lupini at 1 ug/ml after 192 hrs
Fusarium oxysporum [11] = assay: Antifungal activity against Fusarium oxysporum f. sp. lupini at 0.1 ug/ml after 192 hrs relative to control; conditions: read-out: GI
Fusarium oxysporum [12] = assay: Antifungal activity against Fusarium oxysporum f. sp. lupini at 0.5 ug/ml after 48 hrs
Fusarium oxysporum [13] = assay: Antifungal activity against Fusarium oxysporum f. sp. lupini at 0.5 ug/ml after 96 hrs
Fusarium oxysporum [14] = assay: Antifungal activity against Fusarium oxysporum f. sp. lupini at 0.1 ug/ml after 48 hrs
Fusarium oxysporum [15] = assay: Antifungal activity against Fusarium oxysporum f. sp. lupini at 0.5 ug/ml after 192 hrs relative to control; conditions: read-out: GI
Fusarium oxysporum [16] = assay: Antifungal activity against Fusarium oxysporum f. sp. lupini at 0.1 ug/ml after 144 hrs
Fusarium oxysporum [17] = assay: Antifungal activity against Fusarium oxysporum f. sp. lupini at 0.1 ug/ml after 192 hrs
Fusarium oxysporum [18] = assay: Antifungal activity against Fusarium oxysporum f. sp. lupini at 0.5 ug/ml after 144 hrs
Fusarium oxysporum [19] = assay: Antifungal activity against Fusarium oxysporum f. sp. lupini at 0.5 ug/ml after 192 hrs
Fusarium oxysporum [20] = assay: Antifungal activity against Fusarium oxysporum f. sp. lupini at 0.1 ug/ml after 96 hrs

Row | Compound | Radial growth inhibition of fungi (Ā) (mm) (Fusarium oxysporum [1]) | inhibition of growth at 1 µg/mL (Fusarium oxysporum [2]) [%] | Radial growth inhibition of fungi (Ā) (mm) (Fusarium oxysporum [3]) | Radial growth inhibition of fungi (Ā) (mm) (Fusarium oxysporum [4]) | Radial growth inhibition of fungi (Ā) (mm) (Fusarium oxysporum [5]) | Radial growth inhibition of fungi (Ā) (mm) (Fusarium oxysporum [6]) | inhibition of growth at 20 µg/mL (Fusarium oxysporum [7]) [%] | Radial growth inhibition of fungi (Ā) (mm) (Fusarium oxysporum [8]) | Radial growth inhibition of fungi (Ā) (mm) (Fusarium oxysporum [9]) | Radial growth inhibition of fungi (Ā) (mm) (Fusarium oxysporum [10]) | inhibition of growth at 0.1 µg/mL (Fusarium oxysporum [11]) [%] | Radial growth inhibition of fungi (Ā) (mm) (Fusarium oxysporum [12]) | Radial growth inhibition of fungi (Ā) (mm) (Fusarium oxysporum [13]) | Radial growth inhibition of fungi (Ā) (mm) (Fusarium oxysporum [14]) | inhibition of growth at 0.5 µg/mL (Fusarium oxysporum [15]) [%] | Radial growth inhibition of fungi (Ā) (mm) (Fusarium oxysporum [16]) | Radial growth inhibition of fungi (Ā) (mm) (Fusarium oxysporum [17]) | Radial growth inhibition of fungi (Ā) (mm) (Fusarium oxysporum [18]) | Radial growth inhibition of fungi (Ā) (mm) (Fusarium oxysporum [19]) | Radial growth inhibition of fungi (Ā) (mm) (Fusarium oxysporum [20])
1 | COCCOC(C/N=C/c1c(O)c(O)c(C(C)C)c2cc(C)c(-c3c(C)cc4c(c3O)C(/C=N/CC(OCCOC)OCCOC)C(=O)C(O)=C4C(C)C)c(O)c12)OCCOC (stereo not given) | 32.13 | 1 | 45.63 | 19.63 | 58.38 | 19.75 | 1.5 | 45.5 | 31.63 | 58.63 | – | – | – | – | – | – | – | – | – | –
2 | C=CCN/C=C1\C(=O)C(O)=C(C(C)C)c2cc(C)c(-c3c(C)cc4c(c3O)/C(=C/NCC=C)C(=O)C(O)=C4C(C)C)c(O)c21 | 26 | 20.7 | 36.63 | 14.63 | 45.88 | 17.13 | 22.6 | 34.63 | 24.75 | 47 | 9.3 | 18.13 | 27.25 | 19.25 | 15.6 | 41.63 | 53.75 | 38.88 | 50 | 29.88
3 | CCOC(=O)N1CCC(N/C=C2\C(=O)C(O)=C(C(C)C)c3cc(C)c(-c4c(C)cc5c(c4O)/C(=C/NC4CCN(C(=O)OCC)CC4)C(=O)C(O)=C5C(C)C)c(O)c32)CC1 | 32.25 | 0 | 46.25 | 19.63 | 59 | 19.88 | 0.4 | 46 | 32.13 | 59.25 | – | – | – | – | – | – | – | – | – | –
4 | Cc1cc2c(c(O)c1-c1c(C)cc3c(C(C)C)c(O)c(O)c(/C=N/N4CCN(C)CC4)c3c1O)C(/C=N/N1CCN(C)CC1)C(=O)C(O)=C2C(C)C (stereo not given) | 31.88 | 0.8 | 45.75 | 19.25 | 58.5 | 19.38 | 1.3 | 45.75 | 31.63 | 58.75 | – | – | – | – | – | – | – | – | – | –
5 | Cc1cc2c(c(O)c1-c1c(C)cc3c(C(C)C)c(O)c(O)c(/C=N/N4CCN(CCO)CC4)c3c1O)C(/C=N/N1CCN(CCO)CC1)C(=O)C(O)=C2C(C)C (stereo not given) | 32 | 1.3 | 45.5 | 19.5 | 58.25 | 19.63 | 1.7 | 45.38 | 31.5 | 58.5 | – | – | – | – | – | – | – | – | – | –
6 | Cc1cc2c(c(O)c1-c1c(C)cc3c(c1O)/C(=C/NCCCN1CCCC1=O)C(=O)C(O)=C3C(C)C)/C(=C/NCCCN1CCCC1=O)C(=O)C(O)=C2C(C)C | 32.13 | 0 | 46.13 | 19.5 | 58.88 | 19.75 | 0.6 | 45.88 | 31.88 | 59.25 | – | – | – | – | – | – | – | – | – | –
7 | COCCOCCOCCN/C=C1\C(=O)C(O)=C(C(C)C)c2cc(C)c(-c3c(C)cc4c(c3O)/C(=C/NCCOCCOCCOC)C(=O)C(O)=C4C(C)C)c(O)c21 | 25 | 22.8 | 35.25 | 14.13 | 44 | 14.88 | 25.7 | 34.13 | 24.13 | 45.75 | 12.7 | 16.38 | 25.75 | 16.75 | 18.1 | 39.25 | 51.75 | 36.88 | 48.5 | 27
8 | Cc1cc2c(c(O)c1-c1c(C)cc3c(c1O)/C(=C/NCCCN1CCOCC1)C(=O)C(O)=C3C(C)C)/C(=C/NCCCN1CCOCC1)C(=O)C(O)=C2C(C)C | 31.88 | 0.4 | 45.88 | 19.25 | 58.63 | 19.5 | 1 | 45.63 | 31.63 | 59 | – | – | – | – | – | – | – | – | – | –
9 | Cc1cc2c(c(O)c1-c1c(C)cc3c(c1O)/C(=C/NCCOCCO)C(=O)C(O)=C3C(C)C)/C(=C/NCCOCCO)C(=O)C(O)=C2C(C)C | 25.75 | 21.9 | 35.88 | 14.38 | 45.25 | 16 | 23.6 | 34.5 | 24.5 | 46.25 | 11.2 | 17.63 | 26.5 | 18.13 | 16.5 | 40.38 | 52.63 | 38 | 49.5 | 28.5
10 | COCC/N=C/c1c(O)c(O)c(C(C)C)c2cc(C)c(-c3c(C)cc4c(c3O)C(/C=N/CCOC)C(=O)C(O)=C4C(C)C)c(O)c12 (stereo not given) | 32.13 | 0.4 | 46.13 | 19.5 | 58.88 | 19.75 | 0.6 | 45.88 | 31.88 | 59 | – | – | – | – | – | – | – | – | – | –
11 | CCCCOCCOCCN/C=C1\C(=O)C(O)=C(C(C)C)c2cc(C)c(-c3c(C)cc4c(c3O)/C(=C/NCCOCCOCCCC)C(=O)C(O)=C4C(C)C)c(O)c21 | 23.5 | 25.7 | 33.88 | 13.5 | 43.63 | 14.25 | 26.4 | 33.25 | 23.63 | 44 | 16.9 | 15.13 | 24.63 | 16.38 | 23.8 | 36.75 | 49.25 | 34.75 | 45.13 | 25.63
12 | Cc1cc2c(c(O)c1-c1c(C)cc3c(c1O)/C(=C/NCCc1cccs1)C(=O)C(O)=C3C(C)C)/C(=C/NCCc1cccs1)C(=O)C(O)=C2C(C)C | 32 | 0.2 | 46 | 19.38 | 58.75 | 19.63 | 0.8 | 45.75 | 31.75 | 59.13 | – | – | – | – | – | – | – | – | – | –
